Laboratory results: patent US20240208992A1, “MACROCYCLES AS CFTR MODULATORS” (Idorsia Pharmaceuticals Ltd, priority 2021, published 2024)

Biological target: human F508del-CFTR (Homo sapiens, UniProt P13569, DEL508-508)
Test: F508del-CFTR cell surface expression (corrector activity), DiscoveRx ß-galactosidase complementation chemiluminescence assay in recombinant U2OS cell line;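 further: U2OS cells co-expressing ProLink-tagged F508del-CFTR and a membrane-anchored enzyme acceptor, where more surface CFTR restores β-galactosidase activity measured by chemiluminescence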
Settings: for EC50: EC50, F508del-CFTR cell surface expression; for Emax: U2OS
[1] = U2OS cell line, 16h compound incubation, geomean values
[2] = in relation to the Emax of the corrector lumacaftor (=100%), U2OS cell line, 16h compound incubation, arithmetic mean values
[3] = U2OS cells, 16h compound incubation, geomean of several measurements
[4] = in relation to the Emax of the corrector lumacaftor (=100%), U2OS cells, 16h compound incubation, arithmetic mean
[5] = U2OS cells, 16h compound incubation, geomean values
[6] = in relation to Emax of corrector lumacaftor (=100%), arithmetic mean values

Chain of human F508del-CFTR (P13569 with tags, fused parts or gaps DEL508-508): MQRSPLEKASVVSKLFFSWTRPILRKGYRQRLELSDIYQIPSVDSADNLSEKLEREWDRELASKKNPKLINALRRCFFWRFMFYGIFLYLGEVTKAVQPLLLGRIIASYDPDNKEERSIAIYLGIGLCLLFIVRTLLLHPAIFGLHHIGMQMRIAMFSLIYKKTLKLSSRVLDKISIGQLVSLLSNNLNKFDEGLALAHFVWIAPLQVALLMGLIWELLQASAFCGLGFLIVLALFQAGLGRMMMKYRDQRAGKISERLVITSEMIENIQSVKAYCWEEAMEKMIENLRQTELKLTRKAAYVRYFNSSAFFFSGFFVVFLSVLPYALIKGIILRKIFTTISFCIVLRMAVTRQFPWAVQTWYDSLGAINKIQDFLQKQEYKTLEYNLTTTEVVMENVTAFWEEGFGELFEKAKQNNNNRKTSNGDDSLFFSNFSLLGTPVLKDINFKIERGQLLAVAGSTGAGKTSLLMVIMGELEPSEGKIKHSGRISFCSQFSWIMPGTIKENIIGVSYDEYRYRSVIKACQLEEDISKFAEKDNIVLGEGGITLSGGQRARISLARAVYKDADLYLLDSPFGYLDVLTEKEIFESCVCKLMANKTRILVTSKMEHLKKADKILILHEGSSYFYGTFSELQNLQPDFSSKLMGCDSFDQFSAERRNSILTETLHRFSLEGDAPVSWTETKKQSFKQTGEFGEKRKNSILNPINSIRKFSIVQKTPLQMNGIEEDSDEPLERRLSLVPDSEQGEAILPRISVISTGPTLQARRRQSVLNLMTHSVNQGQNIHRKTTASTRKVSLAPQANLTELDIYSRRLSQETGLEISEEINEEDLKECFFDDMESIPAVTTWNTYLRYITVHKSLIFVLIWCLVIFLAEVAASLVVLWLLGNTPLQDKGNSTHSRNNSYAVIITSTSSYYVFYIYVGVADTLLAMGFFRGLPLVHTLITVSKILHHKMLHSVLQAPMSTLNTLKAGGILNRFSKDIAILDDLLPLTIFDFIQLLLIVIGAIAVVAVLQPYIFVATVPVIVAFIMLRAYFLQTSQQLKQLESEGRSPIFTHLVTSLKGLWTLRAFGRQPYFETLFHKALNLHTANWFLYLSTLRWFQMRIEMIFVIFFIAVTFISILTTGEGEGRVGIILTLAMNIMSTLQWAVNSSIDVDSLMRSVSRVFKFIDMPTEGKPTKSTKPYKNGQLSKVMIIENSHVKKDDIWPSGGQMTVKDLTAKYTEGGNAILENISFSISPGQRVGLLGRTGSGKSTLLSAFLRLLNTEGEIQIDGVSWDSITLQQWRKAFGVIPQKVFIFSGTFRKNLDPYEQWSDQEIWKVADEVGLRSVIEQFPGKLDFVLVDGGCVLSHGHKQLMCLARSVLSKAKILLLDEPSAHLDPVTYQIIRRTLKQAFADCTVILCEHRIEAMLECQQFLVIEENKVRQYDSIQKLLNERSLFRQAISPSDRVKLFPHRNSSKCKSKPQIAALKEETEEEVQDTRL

EC50 [3] [µM]	Emax [4] [%]	SMILES	Emax [2] [%]	EC50 [5] [µM]	Emax [6] [%]	other results
		COc1nccc2c1C(=O)N[C@H](C(=O)NCCc1nc3c(s1)CCC3)CC(=O)N(C)[C@@H](CC(C)C)C(=O)N1CCCC[C@@H]1C(=O)N[C@H](Cc1ccccc1)CO2 [Example 190, (7S,11S,17aR,20R)-20-benzyl-N-(2-(5,6-dihydro-4H-cyclopenta[d]thiazol-2-yl)ethyl)-11-isobutyl-4-methoxy-10-methyl-5,9,12,18-tetraoxo-5,6,7,8,9,10,11,12,15,16,17,17a,18,19,20,21-hexadecahydro-14H-dipyrido[2,1-f:3′,4′-p][1]oxa[4,7,10,14]tetraazacycloheptadecine-7-carboxamide]	310			EC50 [1]: 0.334 µM
		CC[C@@H]1C(=O)N[C@H](Cc2ccccc2)COc2cc(C)nc(OC)c2C(=O)N[C@H](C(=O)NCCc2cc(C)no2)CC(=O)N(C)[C@@H](CC(C)C)C(=O)N1C [Example 773, (3R,6R,9S,13S)-3-benzyl-6-ethyl-9-isobutyl-16-methoxy-7,10,18-trimethyl-N-(2-(3-methylisoxazol-5-yl)ethyl)-5,8,11,15-tetraoxo-2,3,4,5,6,7,8,9,10,11,12,13,14,15-tetradecahydropyrido[3,4-p][1]oxa[4,7,10,14]tetraazacycloheptadecine-13-carboxamide]		0.841	339	
		COc1cccc(CCNC(=O)[C@@H]2CC(=O)N(C)[C@@H](CC(C)C)C(=O)N3CCCC[C@@H]3C(=O)N[C@H](Cc3ccccc3)COc3cccc(OC)c3C(=O)N2)c1 [Example 591, (7S,11S,20R,22aR)-20-benzyl-7-isobutyl-14-methoxy-N-(3-methoxyphenethyl)-8-methyl-6,9,13,22-tetraoxo-1,3,4,6,7,8,9,10,11,12,13,19,20,21,22,22a-hexadecahydro-2H-benzo[p]pyrido[2,1-f][1]oxa[4,7,10,14]tetraazacycloheptadecine-11-carboxamide]		0.341	259	
		COc1cccc2c1C(=O)N[C@H](C(=O)NCCc1ccc3c(c1)CCCO3)CC(=O)N(C)[C@@H](CC(C)C)C(=O)N(CCC1CCCCC1)CC(=O)N[C@H](Cc1ccccc1)CO2 (racemic) [Example 11, (3R,9S,13RS)-3-benzyl-N-(2-(chroman-6-yl)ethyl)-7-(2-cyclohexylethyl)-9-isobutyl-16-methoxy-10-methyl-5,8,11,15-tetraoxo-2,3,4,5,6,7,8,9,10,11,12,13,14,15-tetradecahydrobenzo[p][1]oxa[4,7,10,14]tetraazacycloheptadecine-13-carboxamide]	132			
		COc1cccc(CCNC(=O)[C@@H]2CC(=O)N(C)[C@@H](CC(C)C)C(=O)N3CCN(C(C)=O)C[C@@H]3C(=O)N[C@H](Cc3ccccc3)COc3ccc4ccccc4c3C(=O)N2)c1 [Example 750, (4aR,7R,18S,22S)-3-Acetyl-7-benzyl-22-isobutyl-N-(3-methoxyphenethyl)-21-methyl-5,16,20,23-tetraoxo-2,3,4,4a,5,6,7,8,16,17,18,19,20,21,22,23-hexadecahydro-1H-naphtho[1,2-p]pyrazino[2,1-f][1]oxa[4,7,10,14]tetraazacycloheptadecine-18-carboxamide]		0.784	267	
		Cc1cc2c(cn1)C(=O)N[C@H](C(=O)NCCc1ccc3c(c1)OCO3)CC(=O)N(C)[C@@H](CC(C)C)C(=O)N(CCC1CCCCC1)CC(=O)N[C@H](Cc1ccccc1)CO2 [Example 270, (3R,9S,13S)-N-(2-(benzo[d][1,3]dioxol-5-yl)ethyl)-3-benzyl-7-(2-cyclohexylethyl)-9-isobutyl-10,18-dimethyl-5,8,11,15-tetraoxo-2,3,4,5,6,7,8,9,10,11,12,13,14,15-tetradecahydropyrido[3,4-p][1]oxa[4,7,10,14]tetraazacycloheptadecine-13-carboxamide]	172			EC50 [1]: 0.423 µM
		COc1cccc(CCNC(=O)[C@@H]2CC(=O)N(C)[C@@H](CC(C)C)C(=O)N3CCN(C(C)C)C[C@@H]3C(=O)N[C@H](Cc3ccccc3)COc3cccc(OC)c3C(=O)N2)c1 [Example 611, (7S,11S,20R,22aR)-20-benzyl-7-isobutyl-2-isopropyl-14-methoxy-N-(3-methoxyphenethyl)-8-methyl-6,9,13,22-tetraoxo-1,3,4,6,7,8,9,10,11,12,13,19,20,21,22,22a-hexadecahydro-2H-benzo[p]pyrazino[2,1-f][1]oxa[4,7,10,14]tetraazacycloheptadecine-11-carboxamide]		0.344	251	
		CC(C)C[C@H]1C(=O)N(C)C2(CCC2)C(=O)N[C@H](Cc2ccccc2)COc2cnc3ccc(F)cc3c2C(=O)N[C@H](C(=O)NCCc2noc(C3CC3)n2)CC(=O)N1C [Example 691, (3′S,7′S,13′R)-13′-benzyl-N-(2-(5-cyclopropyl-1,2,4-oxadiazol-3-yl)ethyl)-20′-fluoro-7′-isobutyl-6′,9′-dimethyl-1′,5′,8′,11′-tetraoxo-2′,3′,4′,5′,6′,7′,8′,9′,11′,12′,13′,14′-dodecahydro-1′H-spiro[cyclobutane-1,10′-[1]oxa[4,7,10,14]tetraazacycloheptadecino[17,16-c]quinoline]-3′-carboxamide]		0.201	364	
		COc1cccc2c1C(=O)N[C@H](C(=O)NCCc1cncnc1)CC(=O)N(C)[C@@H](CC(C)C)C(=O)N(CCC1CCCCC1)CC(=O)N[C@H](Cc1ccccc1)CO2 [Example 20, (3R,9S,13S)-3-benzyl-7-(2-cyclohexylethyl)-9-isobutyl-16-methoxy-10-methyl-5,8,11,15-tetraoxo-N-(2-(pyrimidin-5-yl)ethyl)-2,3,4,5,6,7,8,9,10,11,12,13,14,15-tetradecahydrobenzo[p][1]oxa[4,7,10,14]tetraazacycloheptadecine-13-carboxamide]	102			EC50 [1]: 0.721 µM
0.294	433	COc1cc(CCNC(=O)[C@@H]2CC(=O)N(C)[C@@H](CC(C)C)C(=O)N(C)[C@H](Cc3nc(-c4ccc(F)cn4)no3)C(=O)N[C@H](Cc3ccccc3)COc3ccc4cnc(C)cc4c3C(=O)N2)on1 [Example 906, (3S,7S,10R,13R)-13-benzyl-10-((3-(5-fluoropyridin-2-yl)-1,2,4-oxadiazol-5-yl)methyl)-7-isobutyl-N-(2-(3-methoxyisoxazol-5-yl)ethyl)-6,9,20-trimethyl-1,5,8,11-tetraoxo-1,2,3,4,5,6,7,8,9,10,11,12,13,14-tetradecahydro-[1]oxa[4,7,10,14]tetraazacycloheptadecino[16,17-f]isoquinoline-3-carboxamide]				
0.066	332	COc1nc(C)cc2c1C(=O)N[C@H](C(=O)NCCc1cc(C)no1)CC(=O)N(C)[C@@H](CC(C)C)C(=O)N(C)[C@H](CCc1ccccc1)C(=O)N[C@H](Cc1ccccc1)CO2 [Example 874, (3R,6R,9S,13S)-3-benzyl-9-isobutyl-16-methoxy-7,10,18-trimethyl-N-(2-(3-methylisoxazol-5-yl)ethyl)-5,8,11,15-tetraoxo-6-phenethyl-2,3,4,5,6,7,8,9,10,11,12,13,14,15-tetradecahydropyrido[3,4-p][1]oxa[4,7,10,14]tetraazacycloheptadecine-13-carboxamide]				
		CC(C)C[C@H]1C(=O)N2CCOC[C@@H]2C(=O)N[C@H](Cc2ccccc2)COc2cnc3ccccc3c2C(=O)N[C@H](C(=O)NCCc2ccc3c(c2)OCCO3)CC(=O)N1C [Example 53, (9S,13S,19aR,22R)-22-benzyl-N-(2-(2,3-dihydrobenzo[b][1,4]dioxin-6-yl)ethyl)-13-isobutyl-12-methyl-7,11,14,20-tetraoxo-7,8,9,10,11,12,13,14,16,17,19,19a,20,21,22,23-hexadecahydro-[1,4]oxazino[3′,4′:6,7][1]oxa[4,7,10,14]tetraazacycloheptadecino[17,16-c]quinoline-9-carboxamide]	404			EC50 [1]: 0.596 µM
0.026	500	Cc1cc2c(c3cccnc13)C(=O)N[C@H](C(=O)NCCn1nnc(C3CC3)n1)CC(=O)N(C)[C@@H](CC(C)C)C(=O)N(C)[C@H](Cc1nc(C(F)(F)F)no1)C(=O)N[C@H](Cc1ccccc1)CO2 [Example 923, (3S,7S,10R,13R)-13-benzyl-N-(2-(5-cyclopropyl-2H-tetrazol-2-yl)ethyl)-7-isobutyl-6,9,17-trimethyl-1,5,8,11-tetraoxo-10-((3-(trifluoromethyl)-1,2,4-oxadiazol-5-yl)methyl)-1,2,3,4,5,6,7,8,9,10,11,12,13,14-tetradecahydro-[1]oxa[4,7,10,14]tetraazacycloheptadecino[16,17-f]quinoline-3-carboxamide]				

SMILES	EC50 [3] [µM]	Emax [4] [%]	Emax [2] [%]	EC50 [5] [µM]	Emax [6] [%]	other results
COc1cccc(CCNC(=O)[C@@H]2CC(=O)N(C)[C@@H](CC(C)C)C(=O)N(C)[C@H](C(C)(C)C)C(=O)N[C@H](Cc3ccccc3)COc3cc(C)nc(OC)c3C(=O)N2)c1 [Example 865, (3R,6R,9S,13S)-3-benzyl-6-(tert-butyl)-9-isobutyl-16-methoxy-N-(3-methoxyphenethyl)-7,10,18-trimethyl-5,8,11,15-tetraoxo-2,3,4,5,6,7,8,9,10,11,12,13,14,15-tetradecahydropyrido[3,4-p][1]oxa[4,7,10,14]tetraazacycloheptadecine-13-carboxamide]	0.103	356				
CC(C)C[C@H]1C(=O)N(C)[C@H](CCc2nc(-c3ccc(F)cn3)no2)C(=O)N[C@H](Cc2ccccc2)COc2cnc3ccc(F)cc3c2C(=O)N[C@H](C(=O)NCCc2noc(C3CC3)n2)CC(=O)N1C [Example 887, (3S,7S,10R,13R)-13-benzyl-N-(2-(5-cyclopropyl-1,2,4-oxadiazol-3-yl)ethyl)-20-fluoro-10-(2-(3-(5-fluoropyridin-2-yl)-1,2,4-oxadiazol-5-yl)ethyl)-7-isobutyl-6,9-dimethyl-1,5,8,11-tetraoxo-1,2,3,4,5,6,7,8,9,10,11,12,13,14-tetradecahydro-[1]oxa[4,7,10,14]tetraazacycloheptadecino[17,16-c]quinoline-3-carboxamide]	0.111	340				
